Reference: ChEMBL document CHEMBL1137951, “Synthesis and in vitro evaluation of 7-dialkylaminomethylbenzo[g]quinoxaline-5,10-diones” (Bioorg Med Chem Lett, 2004)

What was measured:
Assay type in all cases: functional, cell-based
HCT-15 = test: In vitro cytotoxic activity against human colon cancer cell line HCT15 after 72 hr of drug exposure determined by the SRB assay; conditions: HCT-15, 72 h
SK-OV-3 = test: In vitro cytotoxic activity against human ovarian carcinoma cell line SK-OV-3 after 72 hr of drug exposure determined by the SRB assay; conditions: SK-OV-3, 72 h
T47D = test: In vitro cytotoxic activity against human breast cancer cell line T-47D after 72 hr of drug exposure determined by the SRB assay
MDA-MB-468 = test: In vitro cytotoxic activity against human breast cancer cell line MD-MB-468 after 72 hr of drug exposure determined by the SRB assay; conditions: MDA-MB-468, 72 h

Which IC50 (HCT-15) does the source give for Cc1ccc2c(c1)C(=O)c1nccnc1C2=O here?
The IC50 was 120 nM.

And the IC50 (SK-OV-3)?
The IC50 was 2200 nM.

What about the IC50 (T47D) of the same compound?
The IC50 was 1200 nM.

What about the IC50 (MDA-MB-468) of the same compound?
Its IC50 is 1500 nM.

Which IC50 (HCT-15) does the source give for O=C1c2ccc(CBr)cc2C(=O)c2nccnc21 here?
Its IC50 is 400 nM.

And the IC50 (SK-OV-3)?
The IC50 was 1600 nM.

What about the IC50 (T47D) of the same compound?
The IC50 was 500 nM.

And the IC50 (MDA-MB-468)?
Its IC50 is 300 nM.

For CN(C)Cc1ccc2c(c1)C(=O)c1nccnc1C2=O, which IC50 (HCT-15) is on record?
The IC50 was 100 nM.

What about the IC50 (SK-OV-3) of the same compound?
The IC50 was 220 nM.

What about the IC50 (T47D) of the same compound?
The IC50 was 100 nM.

What about the IC50 (MDA-MB-468) of the same compound?
The IC50 was 100 nM.

What does the source list for O=C1c2ccc(CN3CCCC3)cc2C(=O)c2nccnc21?
IC50 (HCT-15): 100 nM; IC50 (SK-OV-3): 250 nM; IC50 (T47D): 100 nM; IC50 (MDA-MB-468): 100 nM

What does the source list for O=C1c2ccc(CN3CCOCC3)cc2C(=O)c2nccnc21?
IC50 (HCT-15): 1300 nM; IC50 (SK-OV-3): 7000 nM; IC50 (T47D): 1300 nM; IC50 (MDA-MB-468): 3200 nM

How did the IC50 (HCT-15) turn out when O=C1c2ccc(CN3CCCCC3)cc2C(=O)c2nccnc21 was run?
The IC50 was 50 nM.

What about the IC50 (SK-OV-3) of the same compound?
The IC50 was 400 nM.

And the IC50 (T47D)?
Its IC50 is 80 nM.

What about the IC50 (MDA-MB-468) of the same compound?
The IC50 was 200 nM.

CN1CCN(Cc2ccc3c(c2)C(=O)c2nccnc2C3=O)CC1 was tested. Which IC50 (HCT-15) did it give?
The IC50 was 1200 nM.

What about the IC50 (SK-OV-3) of the same compound?
The IC50 was 10000 nM.

And the IC50 (T47D)?
Its IC50 is 3000 nM.

What about the IC50 (MDA-MB-468) of the same compound?
The IC50 was 3000 nM.

What does the source list for O=C1c2ccc(CN(CCO)CCO)cc2C(=O)c2nccnc21?
IC50 (HCT-15): 180 nM; IC50 (SK-OV-3): 1200 nM; IC50 (T47D): 900 nM; IC50 (MDA-MB-468): 900 nM

Which results are given for COc1cccc2c1C(=O)c1c(O)c3c(c(O)c1C2=O)C[C@@](O)(C(=O)CO)C[C@@H]3O[C@H]1C[C@H](N)[C@H](O)[C@H](C)O1 [DOXORUBICIN]?
IC50 (HCT-15): 25 nM; IC50 (T47D): 7 nM; IC50 (MDA-MB-468): 7 nM

For CO[C@@]12[C@H](COC(N)=O)C3=C(C(=O)C(C)=C(N)C3=O)N1C[C@@H]1N[C@@H]12 [MITOMYCIN], which IC50 (HCT-15) is on record?
The IC50 was 70 nM.

And the IC50 (SK-OV-3)?
The IC50 was 180 nM.

And the IC50 (T47D)?
The IC50 was 400 nM.

And the IC50 (MDA-MB-468)?
The IC50 was 270 nM.
